The nature of series [1]: Deposition of the ultraviolet absorber as powder on the surface of the detecting device. Type of series: physicochemical. As to conditions: absorber solution in 50 ml acetone or water, device manufactured and dried.
The conditions of series [2]: 25° C.
Series [3] is described as follows: Ultraviolet absorbing ability dissolved in a solvent (spectrum of transmitted light). It is filed as physicochemical. How it is done: For example, when equal amounts of 2-hydroxy-4-methoxybenzophenone-5-sulfonic acid trihydrate and 4-dodecyloxy-2-hydroxybenzophenone are added, the ultraviolet absorbing ability of 4-dodecyloxy-2-hydroxybenzophenone is 1.25 times that of 2-hydroxy-4-methoxybenzophenone-5-sulfonic acid trihydrate on the average in a wavelength region of 300 to 400 nm.
Although the addition amount of 2-hydroxy-4-methoxybenzophenone-5-sulfonic acid trihydrate is 0.8 g and that of 4-dodecyloxy-2-hydroxybenzophenone is 0.5 g, i.e., there is a difference between the addition amounts, it is impossible to explain why the large difference is produced between the changes in absorbance by ultraviolet radiation when they are applied to ozone detecting devices. Note that the ultraviolet absorbing ability of an ultraviolet absorber is proportional to the addition amount. When dissolved in a solvent, therefore, the absorbing ability of 0.8 g of 2-hydroxy-4-methoxybenzophenone-5-sulfonic acid trihydrate is about 1.3 times that of 0.5 g of 4-dodecyloxy-2-hydroxybenzophenone.

Series [4] in a line: Ultraviolet exposure test with Artificial Sunlight XC-100AF (no UV filter), reflected-light absorbance at about 618 nm. It is filed as physicochemical. As to conditions: dye used instead of indigo carmine, with ultraviolet absorber. How it is done:
An ultraviolet exposure test (experiment) in which the ozone detecting devices A to G described above are irradiated with ultraviolet light is conducted. In this test, the influence of ultraviolet light was evaluated by using Artificial Sunlight XC-100AF available from SERIC with no UV filter attached. The incident angle of illuminating light to each of ozone detecting devices A to G was set at 20°, the distance from the lower end of the artificial sunlight to each of ozone detecting devices A to G was set at 110 cm, and each of ozone detecting devices A to G was set in a central portion where the intensity of the illuminating light is highest.
Each of ozone detecting devices A to G described above was irradiated with ultraviolet light minute by minute for 1 to 5 min, and the reflected light from the ozone detecting device was measured with a spectrophotometer whenever the device was irradiated. The influence of ultraviolet light was evaluated by using the change in absorbance at a wavelength of about 618 nm as an index.

For series [5] the following is noted: other water-soluble ultraviolet absorbers, temperature not given; cited from earlier work.

The source of these data is US8084003B2, “Ozone detecting device” (Nippon Telegraph and Telephone Corporation, priority 2006, dated 2011).

Where two headings read alike, the source gives them in different places.

`CC(C)(C)c1ccc(O)c(-n2nc3ccccc3n2)c1` [2-(2-hydroxy-5-t-butylphenyl)-2H-benzotriazole]: the “deposition in the form of powder on the surface of the device” value (from here on “deposition in the form of powder”) in series [1] is reported as “deposits in the form of powder”.
In the case of `CCC(C)(C)c1cc(-n2nc3ccccc3n2)c(O)c(C(C)(C)CC)c1` [2-(3,5-di-t-pentyl-2-hydroxyphenyl)-2H-benzotriazole], in series [1], the “deposition in the form of powder” value was “deposits in the form of powder”.
`COc1cc(O)c(C(=O)c2ccccc2)cc1S(=O)(=O)[O-].[Na+]` [2-hydroxy-4-methoxybenzophenone-5-sodium sulfonate]: the “deposition in the form of powder” value in series [1] is “none of these ultraviolet absorbers deposited in the form of powder”. In series [2], the water solubility result is “more than 2.5 wt %”.
Take `COc1cc(O)c(C(=O)c2ccccc2)cc1S(=O)(=O)O.O.O.O` [2-hydroxy-4-methoxybenzophenone-5-sulfonic acid trihydrate]: the “deposition in the form of powder” value in series [1] is “none of these ultraviolet absorbers deposited in the form of powder”. Moreover, in series [3] (dissolved in a solvent, scaled by addition amount), the “absorbing ability of 0.8 g relative to 0.5 g of 4-dodecyloxy-2-hydroxybenzophenone” value is “about 1.3 times”. The molecule also gave a water solubility in series [2] of 25 wt %.
As to `CCCCCCCCCCCCOc1ccc(C(=O)c2ccccc2)c(O)c1` [4-dodecyloxy-2-hydroxybenzophenone, reference compound], the “deposition in the form of powder” value in series [1] was “deposits in the form of powder”. Further, in series [3] (equal amounts added, average in wavelength region 300 to 400 nm), the “ultraviolet absorbing ability relative to 2-hydroxy-4-methoxybenzophenone-5-sulfonic acid trihydrate” value is reported as 1.25 times.
Turning to `O=S(=O)([O-])c1ccc(O)c(N=Nc2c(O)ccc3ccccc23)c1.[Na+]` [Acid Alizarin Violet N], the “resistance to ultraviolet light with other dyes” value in series [4] is given as “possible to increase the resistance to ultraviolet light”.
The same measure, in the same setting: in the case of `O=C1c2ccccc2C(=O)c2c1ccc(O)c2O` [alizarin] it was “possible to increase the resistance to ultraviolet light”.
Still for that read-out and setting: for `O=C(/C=C/c1ccccc1)c1ccccc1` [chalcone] the value was “possible to increase the resistance to ultraviolet light”.
On to `Nc1ccc(C(=O)O)cc1` [p-aminobenzoic acid], for which the water solubility in series [5] is 0.4 wt %.
Turning to `O=C(Oc1ccccc1)c1ccccc1O` [phenyl salicylate], the water solubility in series [5] is recorded as 0.05 wt %.
